Like-named read-outs stand apart in the source and are kept apart here.

This test has as its target T1, chimeric human H3 receptor (Homo sapiens, UniProt Q9Y5N1, E19D).
T1 construct: made in house; host or cells: Sf9 insect cells (baculovirus infection); P2 membrane preparation
Nature of the test: Chimeric human H3 receptor GTP binding assay (agonist-stimulated GTP-gamma35S binding, Example 7). Type of test: biochemical. The following applies: read-out: Ki. The text has this:
This Example illustrates a representative assay for evaluating agonist-stimulated GTP-gamma^35S binding (“GTP binding”) activity. […] This agonist-stimulated GTP binding activity can also be used to detect partial agonism mediated by antagonist compounds. A compound analyzed in this assay is referred to herein as a “test compound.”
Four independent baculoviral stocks (one directing the expression of the chimeric human H3 receptor and three directing the expression of each of the three subunits of a heterotrimeric G-protein) are used to infect a culture of Sf9 cells as described above. P2 membranes are prepared as described above, and agonist-stimulated GTP binding on the P2 membranes is assessed using histamine (Sigma Chemical Co., St. Louis, Mo.) as agonist in order to ascertain that the receptor/G-protein-alpha-beta-gamma combination(s) yield a functional response as measured by GTP binding. P2 membranes are resuspended by Dounce homogenization (tight pestle) in GTP binding assay buffer (50 mM Tris pH 7.4, 120 mM NaCl, 5 mM MgCl2, 2 mM EGTA, 1 mg/ml BSA, 0.2 mg/ml bacitracin, 0.02 mg/ml aprotinin, 0.01 mg/ml saponin, 10 μM GDP) and added to assay tubes at a concentration of 35 μg protein/reaction tube. […] In competition experiments, non-radiolabeled test compounds are added to separate reactions at concentrations ranging from 10^−10 M to 10^−6 M along with 1 μM histamine to yield a final volume of 0.20 ml.
Neutral antagonists are antagonists that are substantially free of inherent agonist activity, and include those test compounds that reduce the histamine-stimulated GTP binding activity towards, but not below, baseline levels. In contrast, in the absence of added histamine, inverse agonists reduce the GTP binding activity of the receptor-containing membranes below baseline.
After a 60-min incubation at room temperature, reactions are terminated by vacuum filtration over WHATMAN GF/C filters (pre-soaked in wash buffer, 0.1% BSA) followed by washing with ice-cold wash buffer (50 mM Tris pH 7.4, 120 mM NaCl). The amount of receptor-bound (and thereby membrane-bound) GTP-gamma^35S is determined by measuring the filter-bound radioactivity, preferably by liquid scintillation spectrometry of the washed filters. […] Data is expressed as percent above basal (baseline). The results of GTP binding experiments are analyzed using SIGMAPLOT software (SPSS Inc., Chicago, Ill.).
IC50 values are calculated by non-linear regression analysis of dose-response curves using Kaleidograph (Synergy Software, Reading, Pa.).
In general terms: GTPγS resists hydrolysis and so accumulates on activated G proteins.

The mark [1] stands for this setting: assay of Example 7, "*" in Ki of Table II.
Setting [2] is: assay of Example 7, symbol * in column headed Ki of Table II.
Where [3] appears, read: Table II, "*" in Ki, assay of Example 7.

T1 sequence (Q9Y5N1 with tags, fused parts or gaps E19D): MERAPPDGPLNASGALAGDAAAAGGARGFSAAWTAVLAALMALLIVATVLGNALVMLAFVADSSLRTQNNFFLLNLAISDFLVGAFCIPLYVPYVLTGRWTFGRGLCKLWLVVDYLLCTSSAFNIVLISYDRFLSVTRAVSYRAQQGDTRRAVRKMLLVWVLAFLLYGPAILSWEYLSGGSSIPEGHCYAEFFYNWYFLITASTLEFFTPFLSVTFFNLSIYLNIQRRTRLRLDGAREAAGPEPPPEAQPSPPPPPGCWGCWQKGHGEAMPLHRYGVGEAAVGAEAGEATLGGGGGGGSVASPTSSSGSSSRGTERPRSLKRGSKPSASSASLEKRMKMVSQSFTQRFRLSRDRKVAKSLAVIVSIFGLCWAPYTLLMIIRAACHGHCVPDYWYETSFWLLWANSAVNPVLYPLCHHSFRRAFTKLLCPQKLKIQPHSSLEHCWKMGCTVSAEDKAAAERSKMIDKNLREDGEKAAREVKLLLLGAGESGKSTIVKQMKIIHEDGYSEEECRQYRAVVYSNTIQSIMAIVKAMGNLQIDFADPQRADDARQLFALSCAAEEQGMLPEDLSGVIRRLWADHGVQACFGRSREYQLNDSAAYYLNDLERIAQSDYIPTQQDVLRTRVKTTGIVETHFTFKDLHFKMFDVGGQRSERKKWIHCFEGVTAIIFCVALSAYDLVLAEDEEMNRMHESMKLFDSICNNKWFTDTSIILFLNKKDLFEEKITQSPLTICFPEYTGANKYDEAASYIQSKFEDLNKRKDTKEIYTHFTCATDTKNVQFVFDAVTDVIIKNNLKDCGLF

`O=C1OCc2cc(N3CCN(CC(=O)N4CCN(C5CCC5)CC4)CC3)ccc21` [Compound 1156, 5-{4-[2-(4-cyclobutylpiperazin-1-yl)-2-oxoethyl]piperazin-1-yl}-2-benzofuran-1(3H)-one]: the inhibition constant (Ki) (as a rule, a measure of affinity in units of concentration, obtained from inhibition or displacement) under setting [1] was less than 1000 nM.
In the case of `O=C(CN1CCC2(CC1)C(=O)Nc1cccnc12)N1CCN(C2CCC2)CC1` [Compound 435, 1-[2-(4-cyclobutylpiperazin-1-yl)-2-oxoethyl]spiro[piperidine-4,3′-pyrrolo[3,2-b]pyridin]-2′(1′H)-one], the Ki under setting [2] is less than 1000 nM.
`COc1ccccc1-c1ccc(N2CCN(CC(=O)N3CCN(C4CCC4)CC3)CC2)cc1` [Compound 712, 1-cyclobutyl-4-{[4-(2′-methoxybiphenyl-4-yl)piperazin-1-yl]acetyl}piperazine]: the Ki under setting [3] is less than 1000 nM.
With `O=C(CN1CCN(c2ccc(-c3cccc(C(F)(F)F)c3)cc2)CC1)N1CCN(C2CCC2)CC1` [Compound 589, 1-cyclobutyl-4-({4-[3′-(trifluoromethyl)biphenyl-4-yl]piperazin-1-yl}acetyl)piperazine], the inhibition constant (Ki) under setting [3] was less than 1000 nM.
In the case of `CCOC(=O)c1cccc(-c2ccc(N3CCN(CC(=O)N4CCN(C5CCC5)CC4)CC3)nn2)c1` [Compound 1196, ethyl 3-(6-{4-(2-(4-cyclobutylpiperazin-1-yl)-2-oxoethyl]piperazin-1-yl}pyridazin-3-yl)benzoate], the Ki under setting [1] is less than 1000 nM.
Take `COC[C@@H]1CCCN1C(=O)c1cccc(N2CCN(CC(=O)N3CCN(C4CCC4)CC3)CC2)c1` [Compound 745, 1-cyclobutyl-4-{[4-(3-{[(2S)-2-(methoxymethyl)pyrrolidin-1-yl]car-bonyl}phenyl)piperazin-1-yl]acetyl}piperazine]: the inhibition constant Ki under setting [3] is less than 1000 nM.
For the compound `CCOc1ccccc1-c1ccc(N2CCN(CC(=O)N3CCN(C4CCC4)CC3)CC2)cc1` [Compound 700, 1-cyclobutyl-4-{[4-(2′-ethoxybiphenyl-4-yl)piperazin-1-yl]acetyl}piperazine], under setting [3], the Ki is less than 1000 nM.
Take `Cc1ccc(C(=O)NC2CCN(CC(=O)N3CCN(C4CCC4)CC3)CC2)cc1` [Compound 1217, N-{1-[2-(4-cyclobutylpiperazin-1-yl)-2-oxoethyl]piperidin-4-yl}-4-methylbenzamide]: the Ki under setting [1] was less than 1000 nM.
As to `CC1CN(C(=O)c2ccc(N3CCN(CC(=O)N4CCN(C5CCC5)CC4)CC3)cc2)CC(C)O1` (stereo not drawn) [Compound 1095, 4-(4-{4-[2-(4-cyclobutylpiperazin-1-yl)-2-oxoethyl]piperazin-1-yl}benzoyl)-2,6-dimethylmorpholine], the Ki (Table II, assay of Example 7, "*" in Ki) is less than 1000 nM.
On to `CC(=O)c1ccc(N2CCN(CC(=O)N3CCN(C4CCC4)CC3)CC2)nn1` [Compound 372, 1-(6-{4-[2-(4-cyclobutylpiperazin-1-yl)-2-oxoethyl]piperazin-1-yl}pyridazin-3-yl)ethanone], for which, under setting [2], the Ki is less than 1000 nM.
As for `CC(C)N1CN(c2ccccc2)C2(CCN(CC(=O)N3CCN(C4CCC4)CC3)CC2)C1=O` [Compound 1191], the Ki under setting [1] was less than 1000 nM.
On the same count and under the same terms, for `O=C(NC1CCC1)c1ccc(N2CCN(CC(=O)N3CCN(C4CCC4)CC3)CC2)nc1` [Compound 1268, N-cyclobutyl-6-{4-[2-(4-cyclobutylpiperazin-1-yl)-2-oxoethyl]piperazin-1-yl}nicotinamide] the value was less than 1000 nM.
As to `O=C(Cc1cc(Cl)ccc1Br)N1CCN(CC(=O)N2CCN(C3CCC3)CC2)CC1` [Compound 379, 1-[(2-bromo-5-chlorophenyl)acetyl]-4-[2-(4-cyclobutylpiperazin-1-yl)-2-oxoethyl]piperazine], under setting [2], the Ki is less than 1000 nM.
`Cc1cccc(C)c1N1CCN(CC(=O)N2CCN(C3CCCC3)CC2)CC1` [Compound 835, 1-cyclopentyl-4-{[4-(2,6-dimethylphenyl)piperazin-1-yl]acetyl}piperazine]: the inhibitory constant (Ki) (Table II "Ki", symbol "*": Ki in the assay of Example 7) is less than 1000 nM.
Take `CCCN(CCC)C1CCN(CC(=O)N2CCN(C(C)CC)CC2)CC1` (stereo not drawn) [Compound 450, 1-[2-(4-sec-butylpiperazin-1-yl)-2-oxoethyl]-N,N-dipropylpiperidin-4-amine]: the Ki ("*" in Ki of Table II, assay of Example 7) is less than 1000 nM.

These data come from patent US7851474B2, “Dipiperazinyl ketones and related analogues” (Neurogen Corporation, priority 2005, dated 2010).
